The text below walks through data of patent publication US20250017936A1, “CELL-POTENT BISUBSTRATE INHIBITORS FOR NICOTINAMIDE N-[…] (NNMT) AND USES THEREOF” (priority 2021, published 2025).

Like-named read-outs stand apart in the source and are kept apart here.

The target in experiment [1] is T1, NNMT (Homo sapiens (Human), UniProt P40261). Briefly: biochemical. It counts as biochemical.
The target of experiment [2] is T1, NNMT. Kind of experiment: Fluorescence polarization (FP)-based competition assay with probe II138. As to conditions: read-out: Ki (FP Assay). It is filed as binding. (In general: In fluorescence polarisation assays a small probe gives low polarisation when free and higher when bound to something large.)
The mark [3] stands for this setting: SAHH-coupled Assay IC50, 10 μM SAM, 10 μM nicotinamide (Km), 0.1 μM NNMT.

T1 sequence (P40261 whole entry): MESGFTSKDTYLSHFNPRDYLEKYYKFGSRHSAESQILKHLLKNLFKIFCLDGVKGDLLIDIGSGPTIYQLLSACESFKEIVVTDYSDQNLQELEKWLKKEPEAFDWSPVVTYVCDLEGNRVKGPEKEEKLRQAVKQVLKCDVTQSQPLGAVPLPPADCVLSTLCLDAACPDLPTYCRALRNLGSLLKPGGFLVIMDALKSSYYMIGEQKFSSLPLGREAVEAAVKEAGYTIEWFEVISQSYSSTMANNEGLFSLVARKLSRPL

Broadly, the IC50 is the concentration needed to halve the response being measured. In turn, `CC(=O)N(CC#Cc1cccc(C(N)=O)c1)C[C@H]1O[C@@H](n2cnc3c(N)ncnc32)[C@H](O)[C@@H]1O` [II661, 3-(3-(N-(((2R,3S,4R,5R)-5-(6-amino-9H-purin-9-yl)-3,4-dihydroxytetrahydrofuran-2-yl)methyl)acetamido)prop-1-yn-1-yl)benzamide] displayed a concentration for half-maximal inhibition (IC50) at NNMT [1] (setting [3]) of 7600 nM.
For the molecule `CC(=O)N(CC#Cc1cccc(C(N)=O)c1)C[C@H]1C[C@@H](n2ccc3c(N)ncnc32)[C@H](O)[C@@H]1O` [II642, 3-(3-(N-(((1R,2R,3S,4R)-4-(4-amino-7H-pyrrolo[2,3-d]pyrimidin-7-yl)-2,3-dihydroxycyclopentyl)methyl)acetamido)prop-1-yn-1-yl) benzamide], the Ki on NNMT [2] worked out at 70 ± 8 nM; at NNMT [1] (read-out: Ki, app), 4 ± 0.02 nM. For the same molecule, the half-maximal inhibitory concentration (IC50) on NNMT [1] (10 μM SAM, 10 μM nicotinamide (Km), 0.1 μM NNMT, read-out: SAHH-coupled Assay IC50) was determined as 25 ± 7 nM; on NNMT [1] (10 μM SAM, 10 μM nicotinamide (Km), 0.1 μM NNMT, read-out: SAHH-coupled assay IC50), 25 ± 7 nM; at NNMT [1] (substrate and SAM concentration at 4 Km, read-out: SAHH-coupled Assay IC50), 93 ± 7 nM.
`CCN(CC#Cc1cccc(C(N)=O)c1)C[C@H]1C[C@@H](n2ccc3c(Cl)ncnc32)[C@H](O)[C@@H]1O` [II542, 3-(3-((((1R,2R,3S,4R)-4-(4-chloro-7H-pyrrolo[2,3-d]pyrimidin-7-yl)-2,3dihydroxycyclopentyl)methyl)(ethyl)amino)prop-1-yn-1-yl)benzamide] displayed an IC50 at NNMT [1] (setting [3]) of 7700 nM.
